US20200237852A1, “Small Molecule Enhancers of Paneth Cell Function and Differentiation” (Massachusetts Institute of Technology, priority 2019, published 2020)

What was measured:
[1] = system: conventional organoid (ENR); experiment: 384-well screen in conventional organoid (ENR), secreted LYZ (LYZ.NS, LYZ.S); format: cell-based, C57BL/6 mice; conditions: 6-day ENR differentiation compared with ENR+CD
[2] = system: ENR+CD and ENR organoid populations; experiment: Population RNA-seq of organoids; format: cell-based, C57BL/6 mice; conditions: 3 days of treatment, all media conditions controlled, FDR<0.01
Excerpt: To further assess the potential interaction of Wnt agonist CHIR99021 (C) and Notch inhibitor DAPT (D) with XPO1 inhibitors, we carried out an experiment where we assessed bulk organoid population transcriptomes (with RNA-seq) from multiple variations on growth media, XPO1 inhibitor, and duration of treatment (FIG. 12A). To characterize the resulting cell phenotypes, we used aggregate scores of geneset enrichment (based on module scoring as implemented in^7) from the in vivo Paneth and related enteroendocrine cell populations (genesets taken from^6). We see that again for both ENR+CD treated (FIG. 12B) and ENR treated (FIG. 12C) organoid populations, XPO1 inhibition drives enrichment in Paneth cell defining genes, principally at 3 days of treatment. […]
Population RNA-seq was performed using a derivative of the Smart-Seq2 protocol for single cells^1,2. […] Libraries were pooled post-Nextera and cleaned using Agencourt AMPure SPRI beads with successive 0.7× and 0.8× ratio SPRIs and sequenced with an Illumina 75 Cycle NextSeq500/550v2 kit (Illumina FC-404-2005) with loading density at 2.2 pM, with paired end 35 cycle read structure. Samples were sequenced at an average read depth of 8.44 million reads per sample and a total of 96 samples. […]

## O=C(/C=C\n1cnc(-c2cc(C(F)(F)F)cc(C(F)(F)F)c2)n1)NNc1cnccn1 [KPT-330]
[1]
  mean fold change in LYZ.NS/ATP and LYZ.S/ATP (LYZ secretion per cell) in ENR: reasonable increases in LYZ secretion per cell in ENR
[2]
  identity of the majority of significantly up-regulated genes relative to no treatment (DESeq2): known Paneth cell lineage-defining genes
